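Growth conditions: 96-well plates. Treatment: test compound, 48 hours, 5 concentrations. Analysis: linear interpolation between bracketing concentrations; unreached endpoints set to highest concentration. Here, GI50 denotes the concentration required for 50% inhibition of growth.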 The source made the active and inactive calls. Cut-off read from the data, not from the text of the source: active = GI50 up to about 1.1 µM and inactive = higher. A value given as a limit tells only on which side of the number the result lay.

Among the test systems are DLD-1; DMS-273; HOP-18; KM-20L2; LXFL 529; M19-MEL; RXF 631; SNB-78; XF498.
Test in all cases: growth of human tumour cells (NCI), 48 h

As for `COC/C=C\COC`, the GI50 with DLD-1, in the assay with DMS-273, in the assay on HOP-18, in the assay with KM-20L2, with LXFL 529 and in the assay on M19-MEL was > 100 µM (inactive) each time. In addition, the GI50 in the assay on RXF 631, with SNB-78 and in the assay on XF498 was > 100 µM (inactive) throughout.
For `CCCCCCc1cc(C(=O)Nc2cccc(C(F)(F)F)c2)nc(N)n1`, the GI50 in the assay on DLD-1, in the assay with DMS-273, with HOP-18, with KM-20L2, in the assay on LXFL 529 and with M19-MEL was > 100 µM (inactive) in each case. Besides, the GI50 in the assay with RXF 631 and in the assay with SNB-78 was > 100 µM (inactive) in each case.
Turning to `NCCCN(CCCN)CCCNCc1c2ccccc2c(CNCCCN(CCCN)CCCN)c2ccccc12`, the GI50 was 14.7 µM (inactive) in the assay with DLD-1; 6.08 µM (inactive) with DMS-273; 6.73 µM (inactive) in the assay with HOP-18; 25.2 µM (inactive) in the assay with KM-20L2; 10.5 µM (inactive) with LXFL 529; 7.59 µM (inactive) with M19-MEL. Moreover, the GI50 in the assay with RXF 631 was 16 µM (inactive); in the assay on SNB-78 it was 30.8 µM (inactive); with XF498, 17.1 µM (inactive).
Consider `O=C(Nc1ccccc1-c1nn(CO)c(=S)n(CO)c1=O)C(F)(F)F`, for which the GI50 with DLD-1 is 95.7 µM (inactive); in the assay on DMS-273 it was > 100 µM (inactive); with LXFL 529 it was > 100 µM (inactive); with SNB-78 it was > 100 µM (inactive); with XF498, > 100 µM (inactive).
On to `COc1ccc(/C=c2\sc3n(c2=O)C(N)=C(C#N)C(c2ccc(OC)cc2)C=3c2nc3ccccc3[nH]2)cc1` (stereo not given), for which the GI50 is > 10 µM (inactive) in the assay on DLD-1, 33.4 µM (inactive) with DMS-273, 42.2 µM (inactive) in the assay with KM-20L2 and 28.7 µM (inactive) in the assay on M19-MEL.
With `O=S(=O)(O)c1cc(/N=N/c2cc(S(=O)(=O)O)c3cccnc3c2O)ccc1/C=C/c1ccc(/N=N/c2cc(S(=O)(=O)O)c3cccnc3c2O)cc1S(=O)(=O)O`, the GI50 in the assay with DLD-1 is > 100 µM (inactive); in the assay on DMS-273, > 100 µM (inactive); in the assay on HOP-18, > 100 µM (inactive); in the assay on KM-20L2 it was > 66.5 µM (inactive); in the assay with LXFL 529, > 100 µM (inactive); in the assay on M19-MEL, > 100 µM (inactive). Moreover, the GI50 with RXF 631, in the assay with SNB-78 and with XF498 was > 100 µM (inactive) throughout.
As to `COc1ccc(/C=C2/CCCC/C2=N/O)cc1`, the GI50 in the assay with DLD-1 was 67.5 µM (inactive); in the assay on DMS-273 it was 42.7 µM (inactive); in the assay on HOP-18 it was > 100 µM (inactive); with KM-20L2, > 100 µM (inactive); with LXFL 529, 66.8 µM (inactive); in the assay with M19-MEL, > 100 µM (inactive). In addition, the values for the GI50 with RXF 631 and with SNB-78 were > 100 µM (inactive) and 94.2 µM (inactive), respectively.
Turning to `COc1cc(C2c3cc4c(cc3[C@@H](OCCN(C)C)C3COC(=O)[C@H]23)OCO4)cc(OC)c1O` (stereo not given in full), the GI50 was 1.03 µM (active) in the assay on DLD-1; 0.052 µM (active) in the assay on DMS-273; 0.42 µM (active) in the assay on HOP-18; 0.855 µM (active) with KM-20L2; 2.79 µM (inactive) in the assay on LXFL 529; 0.0655 µM (active) in the assay with RXF 631. Also, the GI50 in the assay on SNB-78 was 5.13 µM (inactive); in the assay with XF498, 0.239 µM (active).
As to `CC(C)C(Sc1nc(-c2ccccc2)c(-c2ccccc2)[nH]1)C(=O)N/N=C/c1ccc([N+](=O)[O-])cc1` (stereo not given), the GI50 in the assay with DLD-1 was 30.8 µM (inactive); in the assay with DMS-273, 12 µM (inactive); in the assay with KM-20L2 it was 15.1 µM (inactive); in the assay with LXFL 529 it was 9.98 µM (inactive); in the assay with M19-MEL it was 11.6 µM (inactive); in the assay on SNB-78, 24.8 µM (inactive). The GI50 in the assay with XF498 was 16.2 µM (inactive).
On to `CC(C)C1=Cc2ccc3c(c2C(=O)C1=O)CCCC3`, for which the GI50 in the assay with DLD-1 was 1 µM (active); in the assay on DMS-273, 2.21 µM (inactive); in the assay on HOP-18, 3.51 µM (inactive); in the assay with KM-20L2, 19.1 µM (inactive); in the assay with LXFL 529, 1.08 µM (active); in the assay on M19-MEL it was 2.9 µM (inactive). In addition, the GI50 in the assay with RXF 631 is 9.91 µM (inactive); with SNB-78 it was 4.93 µM (inactive); in the assay with XF498, 2.15 µM (inactive).
Consider `COc1c2c(cc3nc4ccccc4nc13)CCC(C(C)(C)O)C2` (stereo not given), for which the GI50 with DLD-1 is > 100 µM (inactive); with DMS-273 it was 63.4 µM (inactive); in the assay on HOP-18, 86.5 µM (inactive); with KM-20L2, > 100 µM (inactive); in the assay on LXFL 529, > 100 µM (inactive); with M19-MEL, > 100 µM (inactive). The GI50 with SNB-78 and with XF498 was > 100 µM (inactive) in each case.
Consider `O=C1OC(c2ccccc2)=N/C1=C/C=C/c1ccco1`, for which the GI50 in the assay on DLD-1, with KM-20L2, in the assay on LXFL 529, in the assay with M19-MEL, in the assay with RXF 631 and in the assay with SNB-78 was > 100 µM (inactive) throughout. The GI50 in the assay with XF498 was > 100 µM (inactive).
As for `N#CC1=C(c2ccccc2)C(O)(c2ccccc2)NC1=O` (stereo not given), the GI50 in the assay with DLD-1 was 71.3 µM (inactive); in the assay on DMS-273 it was > 100 µM (inactive); in the assay on HOP-18, 31.7 µM (inactive); in the assay with KM-20L2 it was 47.5 µM (inactive); with LXFL 529 it was > 100 µM (inactive); with M19-MEL it was > 100 µM (inactive). In addition, the GI50 in the assay with RXF 631 was 99.8 µM (inactive); with XF498, > 100 µM (inactive).
Regarding `CN1CCN(C)C12C=c1ccccc1=CC21CC1`, the GI50 in the assay on DLD-1 is 26.4 µM (inactive); with DMS-273, 57 µM (inactive); in the assay with HOP-18 it was > 75 µM (inactive); with KM-20L2, 27.3 µM (inactive); with LXFL 529 it was 17.1 µM (inactive); in the assay on M19-MEL, 19.3 µM (inactive). Besides, the figures for the GI50 with RXF 631, with SNB-78 and with XF498 were 53.6 µM (inactive), > 72.4 µM (inactive) and 23.9 µM (inactive), respectively.
`COC(=O)C1=C(c2ccc3c(c2)OCO3)OC(c2ccc3c(c2)OCO3)C1` (stereo not given): the GI50 in the assay with DLD-1 is > 100 µM (inactive); in the assay on DMS-273, > 100 µM (inactive); with HOP-18 it was 69.7 µM (inactive); in the assay with KM-20L2, > 100 µM (inactive); in the assay with LXFL 529 it was 38.4 µM (inactive); in the assay with M19-MEL, > 100 µM (inactive). Also, the GI50 with RXF 631, in the assay with SNB-78 and with XF498 was > 100 µM (inactive) in each case.
On to `COc1cc(CC(C(=O)O)C(=O)O)c(OC)cc1CC(C(=O)O)C(=O)O`, for which the GI50 in the assay with DLD-1, in the assay with DMS-273, with KM-20L2, with LXFL 529, in the assay on M19-MEL and with SNB-78 was > 100 µM (inactive) throughout. In addition, the GI50 with XF498 is > 100 µM (inactive).
`c1ccc2c(c1)C1CCCCCC21N1CCOCC1` (stereo not given): the GI50 in the assay on DLD-1 is 84.5 µM (inactive); with DMS-273, 67.1 µM (inactive); in the assay on KM-20L2, > 100 µM (inactive); in the assay on LXFL 529, 50 µM (inactive); in the assay with M19-MEL it was > 100 µM (inactive); in the assay with SNB-78 it was > 100 µM (inactive).
Take `COC12CCC(=O)C=C1c1ccccc1N2C(C)=O` (stereo not given): the GI50 with DLD-1, with DMS-273, in the assay with HOP-18, with KM-20L2, in the assay on LXFL 529 and in the assay with M19-MEL was > 100 µM (inactive) each time. The GI50 in the assay on SNB-78 and in the assay on XF498 was > 100 µM (inactive) each time.
Turning to `Cc1nn(C)cc1P(=S)(c1ccccc1)c1ccccc1`, the GI50 with DLD-1 is 51.4 µM (inactive); in the assay with DMS-273 it was 31.6 µM (inactive); in the assay on HOP-18, > 100 µM (inactive); in the assay on KM-20L2, > 100 µM (inactive); in the assay with LXFL 529, 51.3 µM (inactive); in the assay on M19-MEL it was 59.3 µM (inactive). The GI50 in the assay with SNB-78 was 51.2 µM (inactive); with XF498 it was > 100 µM (inactive).
For the compound `COc1ccc2nc(NC(=O)C(=O)NNC(=O)c3ccncc3)sc2c1`, the GI50 in the assay with DLD-1, in the assay with HOP-18, with KM-20L2, with LXFL 529, in the assay with M19-MEL and with SNB-78 was > 100 µM (inactive) throughout. The GI50 with XF498 is > 100 µM (inactive).
As to `Cn1c(=O)nc2n(-c3cc(C(F)(F)F)cc(C(F)(F)F)c3)c3ccccc3nc-2c1=O`, the GI50 in the assay on DMS-273 is 45.7 µM (inactive); with KM-20L2, > 100 µM (inactive); with M19-MEL it was 13.8 µM (inactive); in the assay with SNB-78, > 100 µM (inactive); in the assay on XF498, > 100 µM (inactive).
As for `COc1c(Cl)c2c(c(OC)c1OC)-c1ccc(OC)c(=O)c(Cl)c1C(NC(C)=O)CC2` (stereo not given), the GI50 in the assay on DLD-1 was 0.345 µM (active); in the assay with DMS-273, 0.116 µM (active); in the assay with KM-20L2 it was 0.12 µM (active); with LXFL 529, 0.243 µM (active); in the assay with M19-MEL it was 0.262 µM (active); in the assay with RXF 631 it was 0.473 µM (active). Also, the values for the GI50 with SNB-78 and with XF498 were 0.36 µM (active) and 0.34 µM (active), respectively.
On to `Cc1nc2c(ccc3ncccc32)[nH]1`, for which the GI50 with DLD-1, in the assay with DMS-273, in the assay with HOP-18, in the assay with KM-20L2, in the assay with LXFL 529 and with M19-MEL was > 100 µM (inactive) in each case.
Regarding `O=C1c2c(nc3ccccc3c2-c2ccccc2)CN1Nc1ccccc1`, the GI50 in the assay on DLD-1, in the assay on KM-20L2, in the assay with LXFL 529, in the assay with M19-MEL and with XF498 was > 100 µM (inactive) in each case.
As for `CCCCN(C)CC(C(C)=O)C(c1ccccc1)c1c(O)c2ccccc2oc1=O` (stereo not given), the GI50 in the assay with DLD-1, in the assay with DMS-273, with HOP-18, in the assay with KM-20L2, in the assay on LXFL 529 and in the assay with M19-MEL was > 100 µM (inactive) each time. In addition, the GI50 in the assay with SNB-78 and in the assay with XF498 was > 100 µM (inactive) throughout.

The record behind these values is ChEMBL document CHEMBL1201862, “PubChem BioAssay data set” (2004).
